The numbers were not newly measured in patent publication US20260144756A1 (US NANO FOOD AND DRUG INC, priority 2022, published 2026), which cites them from elsewhere.

Molecules are shown by their SMILES.

The conditions of this data set: in vivo.

For `CC(C)(Oc1ccc(C(=O)c2ccc(Cl)cc2)cc1)C(=O)O` [fenofibric acid], the “elimination / terminal half-life” value is given as “about 20 hours”.
